In patent EP0821692B1, “IMMUNOPOTENTIATING INOSINE MONOPHOSPHATE 5'-NUCLEOTIDASE RESISTANT DERIVATIVES AND USES THEREOF” (UNIVERSITY OF SOUTH FLORIDA, priority 1995, dated 1996):

Key:
5'-nucleotidase = details: Crotalus atrox, pH 7.3
[1] = in vivo; cited from earlier work

Compound | Hydrolysis (%) (5'-nucleotidase) | half-life [1]
Nc1ncnc2c1ncn2[C@@H]1O[C@H](COP(=O)(O)O)[C@@H](O)[C@H]1O [Adenosine MP, adenosine-5'-monophosphate] | 86.0% | 
isoprinosine |  | less than four hours
